Patent US9475812B2, “Pyridonaphthyridine type dual PI3K and mTOR inhibitor and its preparation and use” (Xuanzhu Pharma Co., Ltd., priority 2011, dated 2016)
Read-outs that look alike come from different tables or passages of the source.

Tests used:
[1] = Pharmacokinetic assay in rat in vivo; details: Sprague-Dawley (SD), plasma, male SD rats; for half-life: read-out: T1/2 (half-life) (converted); for bioavailability: PO(4 mg/kg) vs IV, read-out: F(%) absolute bioavailability
Procedure: Male SD rats, each test substance, each administration, three rats were used, having a body weight of 200-250 g.
the present compounds: Compound 16, dissolved with 5% NMP+60% PEG400+35% sterile water for injection, other compounds, dissolved with 5% NMP+40% PEG400+55% sterile water for injection.
Blood collection: each of about 100 μL whole blood were collected at 0 h before administration (pre-administration), and at 0.083 h, 0.25 h, 0.5 h, 1 h, 2 h, 4 h, 6 h, 8 h and 24 h after administration. The collected blood samples were centrifuged at 8000 rpm in a high-speed centrifuge for 6 mins to separate the blood plasm. The separated plasm was freezing-preserved at −80° C. in a refrigerator.
Plasm sample analysis: The plasm sample was treated by a liquid-liquid extraction. 20 μL of the plasm was taken, subjected to a vortex at 1500 rpm for 10 mins, and then centrifuged at 12000 rpm for 5 mins. 400 μL of the supernatant was taken and blowed to dryness in the nitrogen gas. The resulting substance is re-dissolved in 200 μL methanol:water (1:1, V/V), and the solution was analyzed with LC-MS/MS.

[2] = target: PI3Kα (Homo sapiens, UniProt P42336); assay: PI3Kα enzymology assay (in vitro enzyme inhibition); assay type: biochemical; details: PI3Kα 1.65 nM, PIP2 50 μM, ATP 25 μM, 60 mins
Procedure: PI3Kα Enzymology Assay Procedures
1. The agent's final concentrations and the compound formulation
1.1 PI3Kα (1.65 nM) kinase solution, substrate PIP2 50 μM, ATP 25 μM;
(§1) 1.2 4 folds kinase solution, 2 folds substrate and ATP solution;
(§2) 1.3 test compound 1 mM stock solution (final concentration 100 folds of DMSO solution).
(§3) 2.1 test compound 1 mM, diluted with DMSO 4 folds gradient, and then diluted with kinase buffer 25 folds;
(§4) 2.2 To each well in a 384-well plate was added 2.5 μL series diluted compounds;
2.3 To each well was added 2.5 μL 4 folds kinase solution;
(§5) 2.4 To each well was added 2.5 μL substrate/ATP solution;
(§6) 2.5 incubated for 60 mins;
2.6 Envision data reading: Lance signal ([…]).
The inhibition ratio %=(sample RLU−min)/(max−min)×100
wherein “max” is the control without the kinase; “min” is the DMSO control containing the enzyme but not containing the compound.
Data were input into GraphPad Prism 5.0 to plot a curve and obtain IC50.

[3] = target: mTOR (Homo sapiens, UniProt P42345); assay: mTOR enzymology assay (in vitro enzyme inhibition, ULight-4E-BP1 peptide, Lance signal); assay type: biochemical; details: mTOR 2.5 nM, ULight-4E-BP1 peptide 50 nM, ATP 10.8 uM, 60 mins
Procedure: mTOR Enzymology Assay Procedures
1. The agent's final concentrations and the compound solution preparation
1.1 mTOR (2.5 nM) kinase solution, substrate ULight-4E-BP1 peptide 50 nM, ATP 10.8 uM;
as §1, §2, §3, §4
2.3 To each well was added 2.5 μL 4 fold kinase solution;
as §5, §6
2.6 Envision data reading Lance signal (665 nM).
The inhibition ratio %=(Lance signal−min)/(max−min)×100
wherein “max” is the DMSO control containing the enzyme but not containing the compound; “min” is the control without the kinase.
Input the data into GraphPad Prism5.0 to plot a curve and obtain IC50.

[4] = system: U87MG cells; assay: In vitro cellular inhibitory activity, XTT cell viability, U87MG; assay type: cell-based; details: Homo sapiens, U-87 MG, 72 hours
Procedure: (§7) 1. Formulating the agents and the compounds: Formulating the PBS, the XTT working liquor, the paclitaxel stock solution and gradient dilute solutions thereof, and the stock solution of test compound and gradient dilute solutions of test compounds.
(§8) 2. Culturing cells: Thawing cells, Passing cells, Freezing and preserving cells.
(§9) Preparing the cell suspension;
(§10) The cell suspension was added to a 96-well plate, 100 μL per well;
(§11) The plate was placed in the incubator and incubated at 37° C. under 5% CO2 overnight.
(§12) Drugs were added to the cell culture plate. The plate was placed in the CO2 incubator and incubated for 72 hours.
(§13) 5. Testing the cell viability with the XTT method
(§14) The XTT working solution was added to the plate. The plate was placed in the CO2 incubator for 2 hours. Then the plate was placed in a microplate reader to read the absorbance at 450 nm.
(§15) 1) % inhibition=(Absorbance (Vehicle)−Absorbance(Compound))/(Absorbance(Vehicle)−Absorbance(positive control)×100%;
(§16) 2) Data were input into GraphPad Prism 5.0 to plot a curve and obtain IC50.

[5] = system: A549 cells; assay: In vitro cellular inhibitory activity, XTT cell viability, A549; assay type: cell-based; details: Homo sapiens, 72 hours
Procedure: as §7, §8, §9, §10, §11, §12, §13, §14, §15, §16

[6] = IV(2 mg/kg), dosage in Table 3 (Compound 16: 0.45 mg/kg)

PI3Kα, sequence (P42336 whole entry): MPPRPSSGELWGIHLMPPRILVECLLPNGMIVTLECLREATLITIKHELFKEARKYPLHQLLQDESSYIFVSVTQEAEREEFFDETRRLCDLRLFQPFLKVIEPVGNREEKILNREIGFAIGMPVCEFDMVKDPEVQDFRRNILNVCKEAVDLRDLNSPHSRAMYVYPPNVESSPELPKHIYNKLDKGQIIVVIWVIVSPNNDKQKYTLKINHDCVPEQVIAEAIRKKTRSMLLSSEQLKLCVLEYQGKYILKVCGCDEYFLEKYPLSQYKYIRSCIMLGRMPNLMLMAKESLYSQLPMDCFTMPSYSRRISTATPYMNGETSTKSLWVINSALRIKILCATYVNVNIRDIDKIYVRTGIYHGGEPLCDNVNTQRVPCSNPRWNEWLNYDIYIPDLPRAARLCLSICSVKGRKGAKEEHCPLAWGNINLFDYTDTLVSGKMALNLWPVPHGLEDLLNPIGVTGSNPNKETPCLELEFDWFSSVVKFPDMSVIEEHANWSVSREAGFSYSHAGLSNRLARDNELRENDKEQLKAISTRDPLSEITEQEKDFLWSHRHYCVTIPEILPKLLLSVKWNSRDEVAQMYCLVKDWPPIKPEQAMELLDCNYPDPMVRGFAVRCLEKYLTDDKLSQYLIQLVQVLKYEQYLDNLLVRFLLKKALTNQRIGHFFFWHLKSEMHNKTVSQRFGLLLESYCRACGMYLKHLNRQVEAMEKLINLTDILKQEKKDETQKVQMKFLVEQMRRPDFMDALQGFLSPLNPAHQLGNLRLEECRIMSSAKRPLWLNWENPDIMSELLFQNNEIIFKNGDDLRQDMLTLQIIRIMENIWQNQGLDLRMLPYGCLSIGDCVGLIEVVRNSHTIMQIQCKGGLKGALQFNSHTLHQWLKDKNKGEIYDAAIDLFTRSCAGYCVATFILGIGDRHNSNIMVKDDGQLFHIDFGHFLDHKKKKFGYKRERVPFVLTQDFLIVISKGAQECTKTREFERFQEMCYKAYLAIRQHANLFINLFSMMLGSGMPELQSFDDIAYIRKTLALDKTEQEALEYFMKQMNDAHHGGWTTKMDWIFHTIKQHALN
PI3Kα, sequence (P27986 whole entry partner): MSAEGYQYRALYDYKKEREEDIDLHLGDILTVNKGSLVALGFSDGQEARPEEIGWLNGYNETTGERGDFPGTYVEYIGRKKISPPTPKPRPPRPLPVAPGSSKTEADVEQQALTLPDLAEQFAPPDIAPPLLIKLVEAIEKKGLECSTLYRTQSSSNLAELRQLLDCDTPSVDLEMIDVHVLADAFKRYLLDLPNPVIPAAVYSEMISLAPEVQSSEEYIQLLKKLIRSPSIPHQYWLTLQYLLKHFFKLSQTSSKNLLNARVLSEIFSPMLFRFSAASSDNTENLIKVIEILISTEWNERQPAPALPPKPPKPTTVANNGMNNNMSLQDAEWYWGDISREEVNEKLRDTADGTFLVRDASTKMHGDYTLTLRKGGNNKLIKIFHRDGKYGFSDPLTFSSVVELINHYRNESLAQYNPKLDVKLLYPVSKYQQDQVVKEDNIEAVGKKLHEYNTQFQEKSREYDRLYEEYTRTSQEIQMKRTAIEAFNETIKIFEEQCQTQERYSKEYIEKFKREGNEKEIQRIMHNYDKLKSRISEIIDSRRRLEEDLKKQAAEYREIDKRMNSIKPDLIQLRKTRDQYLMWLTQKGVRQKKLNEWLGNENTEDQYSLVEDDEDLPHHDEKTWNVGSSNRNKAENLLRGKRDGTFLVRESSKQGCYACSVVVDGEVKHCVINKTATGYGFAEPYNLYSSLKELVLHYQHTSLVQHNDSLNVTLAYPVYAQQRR

Row | Structure (SMILES) | AUC(0-t) [1, 6] | half-life [1, 6] | bioavailability [1] | AUC(0-t) ([1]; PO(4 mg/kg), intragastric) | half-life ([1]; PO(4 mg/kg), intragastric) | IC50 [2] | IC50 [3] | IC50 [4] | IC50 [5]
1 | N#Cc1ccc(-c2ccc3ncc4ccc(=O)n(-c5cccc(C(F)(F)F)c5)c4c3n2)cn1 [Compound 16, 5-(9-oxo-10-(3-(trifluoromethyl)phenyl)-9,10-dihydropyrido[3,2-c][1,5]naphthyridin-2-yl)-2-cyanopyridine] | 195 ng·h/mL | 1.52 h | 23% | 410 ng·h/mL | 1.67 h | 58 nM | 8.7 nM |  | 
2 | O=c1ccc2cnc3ccc(-c4ccc(-n5cccn5)nc4)nc3c2n1-c1cccc(C(F)(F)F)c1 [Compound 20, 2-(6-(1H-pyrazol-1-yl)pyridin-3-yl)-10-(3-(trifluoromethyl)phenyl)pyrido[3,2-c][1,5]naphthyridin-9(10H)-one] |  |  |  |  |  | 104 nM | 6 nM |  | 
3 | CSc1ccc(-c2ccc3ncc4ccc(=O)n(-c5cccc(C(F)(F)F)c5)c4c3n2)cn1 [Compound 38, 2-(6-(methylthio)pyridin-3-yl)-10-(3-(trifluoromethyl)phenyl)pyrido[3,2-c][1,5]naphthyridin-9(10H)-one] |  |  |  |  |  | 17 nM | 5 nM |  | 
4 | COc1ncc(-c2ccc3ncc4ccc(=O)n(-c5cccc(C(F)(F)F)c5)c4c3n2)cn1 [Compound 14, 2-(2-methoxypyrimidin-5-yl)-10-(3-(trifluoromethyl)phenyl)pyrido[3,2-c][1,5]naphthyridin-9(10H)-one] |  |  | 42.3% | 445 ng·h/mL | 3.49 h | 8.8 nM | 4.4 nM |  | 
5 | CC(C)(C#N)c1ccc(-n2c(=O)ccc3cnc4ccc(-c5ccc(N)nc5)nc4c32)cc1 [Compound 7, 2-(4-(2-(6-aminopyridin-3-yl)-9-oxopyrido[3,2-c][1,5]naphthyridin-10(9H)-yl)phenyl)-2-methylpropanenitrile] |  |  |  |  |  |  |  | 29.3 nM | 
6 | CN1CCN(c2ccc(-c3ccc4ncc5ccc(=O)n(-c6cccc(C(F)(F)F)c6)c5c4n3)cn2)CC1 [Compound 19, 2-(6-(4-methylpiperazin-1-yl)pyridin-3-yl)-10-(3-(trifluoromethyl)phenyl)pyrido[3,2-c][1,5]naphthyridin-9(10H)-one] |  |  |  |  |  | 158 nM | 2.3 nM |  | 
7 | O=c1ccc2cnc3ccc(-c4c[nH]c5ncccc45)nc3c2n1-c1cccc(C(F)(F)F)c1 [Compound 17, 2-(1H-pyrrolo[2,3-b]pyridin-3-yl)-10-(3-(trifluoromethyl)phenyl)pyrido[3,2-c][1,5]naphthyridin-9(10H)-one] | 723 ng·h/mL | 0.61 h | 20.8% | 212 ng·h/mL | 5.68 h | 45 nM | 5.3 nM |  | 
8 | O=c1ccc2cnc3ccc(-c4ccc(CO)nc4)nc3c2n1-c1cccc(C(F)(F)F)c1 [Compound 18, 2-(6-(hydroxymethyl)pyridin-3-yl)-10-(3-(trifluoromethyl)phenyl)pyrido[3,2-c][1,5]naphthyridin-9(10H)-one] |  |  |  |  |  | 3.6 nM | 2.6 nM |  | 
9 | Nc1ccc(-c2ccc3ncc4ccc(=O)n(-c5cccc(C(F)(F)F)c5)c4c3c2)cn1 [Torin-2, 9-(6-Aminopyridin-3-yl)-1-(3-(trifluoromethyl)phenyl)benzo[h][1,6]naphthyridin-2(1H)-one, reference compound] | 259 ng·h/mL |  | 22.6% | 104 ng·h/mL |  |  |  | 12.4 nM | 14.7 nM
10 | Nc1ncc(-c2ccc3ncc4ccc(=O)n(-c5cccc(C(F)(F)F)c5)c4c3n2)cn1 [Compound 13, 2-(2-aminopyrimidin-5-yl)-10-(3-(trifluoromethyl)phenyl)pyrido[3,2-c][1,5]naphthyridin-9(10H)-one] | 711 ng·h/mL | 0.62 h | 49% | 707 ng·h/mL | 1.44 h | 2.4 nM | 0.47 nM | 26.4 nM | 
11 | Nc1ccc(-c2ccc3ncc4ccc(=O)n(-c5cccc(C(F)(F)F)c5)c4c3n2)cn1 [Compound 1, 2-(6-aminopyridin-3-yl)-10-(3-(trifluoromethyl)phenyl)pyrido[3,2-c][1,5]naphthyridin-9(10H)-one] | 1310 ng·h/mL | 1.79 h | 43.7% | 1030 ng·h/mL | 2.78 h | 3.2 nM | 0.87 nM | 8.9 nM | 11.9 nM
12 | CC(=O)Nc1ccc(-c2ccc3ncc4ccc(=O)n(-c5cccc(C(F)(F)F)c5)c4c3n2)cn1 [Compound 15, N-(5-(9-oxo-10-(3-(trifluoromethyl)phenyl)-9,10-dihydropyrido[3,2-c][1,5]naphthyridin-2-yl)pyridin-2-yl)acetamide] | 441 ng·h/mL | 0.71 h | 65% | 550 ng·h/mL | 2.36 h | 6.1 nM | 3 nM | 12.7 nM | 20.2 nM
13 | O=c1ccc2cnc3ccc(-c4cnc5[nH]ccc5c4)nc3c2n1-c1cccc(C(F)(F)F)c1 [Compound 39, 2-(1H-pyrrolo[2,3-b]pyridin-5-yl)-10-(3-(trifluoromethyl)phenyl)pyrido[3,2-c][1,5]naphthyridin-9(10H)-one] |  |  |  |  |  | 2.5 nM | 0.89 nM | 8.4 nM | 6.8 nM
